{"source": "patent US8551959B2", "about": "“Glycolipid and use thereof” (RIKEN, priority 2008, dated 2013)", "key": {"[1]": {"system": "IFN-γ", "assay": "IFN-γ content in serum (sandwich ELISA) after tail vein administration of synthetic glycolipid to mice", "format": "in vivo, C57BL/6 mice", "settings": "for IFN-γ production level in serum compared with α-GalCer and carba-glycolipid A: 100 μg/kg body weight, FIG. 1; for IFN-γ production level in serum compared with α-GalCer and carba-glycolipid A / IFN-γ production level in serum compared with α-GalCer: 6-60 hr", "method": "(§1) DMSO solutions (1 mg/mL concentration) of α-GalCer, carba-glycolipid A, compound 2-9, compound 3-4, compound 3-7 and compound 3-10 were prepared. The above-mentioned DMSO solutions were diluted with saline (manufactured by Otsuka Pharmaceutical Co., Ltd.) containing 0.5% Tween 20 (Bio-Rad) such that the dose would be 100 μg/kg body weight when 200 μL is administered to one mouse from the tail vein.\nEach of the prepared solutions (200 μL) of carba-glycolipid A, compound 2-9, compound 3-4, compound 3-7 and compound 3-10 was injected to C57BL/6 mice (5 per group) from the tail vein. α-GalCer was used as a control substance, and 200 μL of α-GalCer solution prepared to a dose of 100 μg/kg body weight according to a similar method was injected from the tail vein. A group administered with a medium (200 μL of saline containing 0.5% Tween 20) was taken as a negative control. The blood (80 μL) was taken from the orbital plexus venosus 6, 12, 24, 36, 48 and 60 hr after administration, and the serum was prepared.\nThe content of IFN-γ in the serum after lapse of 6, 12, 24, 36, 48 and 60 hr from the administration was measured by sandwich ELISA (ENDOGEN). The measurement results (average value) of the IFN-γ production level and the standard deviation (STDEV) thereof are shown in FIG. 1.\nBy a method similar to Experimental Example 1, the content of IFN-γ in the serum after lapse of 6, 12, 24, 36, 48 and 60 hr from the administration of α-GalCer, compound 2-9, compound 3-4, compound 3-7, compound 3-10, compound 3-13 and compound 3-16 was measured. The measurement results (average value) of the IFN-γ production level and the standard deviation (STDEV) thereof are shown in FIG. 4.\nBy a method similar to Experimental Example 1 except that the dose of α-GalCer was 2 μg/mouse and the dose of compound 2-9 was 2 μg/mouse, 0.2 μg/mouse, 0.02 μg/mouse, 0.002 μg/mouse or 0.0002 μg/mouse, the content of IFN-γ in the serum after lapse of 6, 12, 24, 36, 48 and 60 hr from the administration of α-GalCer and compound 2-9 was measured. The measurement results (average value) of the IFN-γ production level and the standard deviation (STDEV) thereof are shown in FIG. 5."}, "[2]": {"system": "NKT cells", "settings": "non-patent document 10; cited from earlier work"}, "[3]": {"system": "human NKT cells", "settings": "cited from earlier work"}, "[4]": {"system": "IL-12", "assay": "IL-12 content in serum (Cytometric bead array) after tail vein administration of synthetic glycolipid to mice", "format": "in vivo, C57BL/6 mice", "settings": "Experimental Example 3; 2, 0.2 or 0.02 μg/mouse; 3 and 6 hr; FIG. 9", "method": "as §1, with “vein. […]” for “vein.”\nThe content of IL-12 in the serum after lapse of 3, 6 and 12 hr from the administration was measured by Cytometric bead array system (BD Biosciences), which is one kind of the ELISA method. […]\nBy a method similar to Experimental Example 1, the content of IL-12(p70) in the serum after lapse of 3 and 6 hr from the administration of α-GalCer, compound 2-9, compound 3-4, compound 3-7, compound 3-10, compound 3-13 and compound 3-16 was measured. […]\nBy a method similar to Experimental Example 1 except that the dose of α-GalCer and compound 2-9 was 2 μg/mouse, 0.2 μg/mouse or 0.02 μg/mouse, the content of IL-12(p70) in the serum after lapse of 3 and 6 hr from the administration of α-GalCer and compound 2-9 was measured. […]"}, "[5]": {"system": "IL-4", "assay": "IL-4 content in serum (Cytometric bead array) after tail vein administration of synthetic glycolipid to mice", "format": "in vivo, C57BL/6 mice", "settings": "Experimental Example 3; 2, 0.2 or 0.02 μg/mouse; 3 and 6 hr; FIG. 7", "method": "as §1, with “vein. […]” for “vein.”\nThe content of IL-4 in the serum after lapse of 3, 6 and 12 hr from the administration was measured by Cytometric bead array system (BD Biosciences), which is one kind of the ELISA method. […]\nBy a method similar to Experimental Example 1, the content of IL-4 in the serum after lapse of 3 and 6 hr from the administration of α-GalCer, compound 2-9, compound 3-4, compound 3-7, compound 3-10, compound 3-13 and compound 3-16 was measured. […]\nBy a method similar to Experimental Example 1 except that the dose of α-GalCer and compound 2-9 was 2 μg/mouse, 0.2 μg/mouse or 0.02 μg/mouse, the content of IL-4 in the serum after lapse of 3 and 6 hr from the administration of α-GalCer and compound 2-9 was measured. […]"}, "[6]": {"settings": "non-patent document 7; cited from earlier work"}, "[7]": {"settings": "Experimental Example 1, tail vein"}, "[8]": {"settings": "Experimental Example 1, conclusion from IFN-γ, IL-4 and IL-12 levels"}, "[9]": {"settings": "Experimental Example 2, conclusion from IFN-γ, IL-4 and IL-12 levels"}, "[10]": {"settings": "Experimental Example 2, tail vein, FIG. 4"}}, "note": "“Also recorded” adds a separate entry of the source.", "data": [{"molecule": "CCCCCCCCCCCCCCCCCCCCCCCCCC(=O)N[C@@H](CO[C@H]1OC(C)[C@H](O)[C@H](O)C1O)[C@H](O)[C@H](O)CCCCCCCCCCCCCC", "note": "(stereo partly shown) [compound 3-10]", "values": [{"measurement": "IFN-γ production level in serum compared with α-GalCer and carba-glycolipid A", "setting": "[1]; [7]", "result": "larger amount of IFN-γ than α-GalCer and carba-glycolipid A"}, {"measurement": "Selective induction of IFN-γ production compared to α-GalCer and carba-glycolipid A", "setting": "[1]; [8]", "result": "selectively induced production of IFN-γ in larger amounts"}, {"measurement": "Selective induction of IFN-γ production compared to α-GalCer", "setting": "[1]; [9]", "result": "selectively induced production of IFN-γ in larger amounts"}, {"measurement": "IFN-γ production level in serum compared with α-GalCer", "setting": "[1]; [10]", "result": "larger amount of IFN-γ than α-GalCer"}]}, {"molecule": "CCCCCCCCCCCCCCCCCCCCCCCCCC(=O)N[C@@H](CO[C@H]1OC(COCC)[C@H](O)[C@H](O)C1O)[C@H](O)[C@H](O)CCCCCCCCCCCCCC", "note": "(stereo partly shown) [compound 3-13]", "values": [{"measurement": "Selective induction of IFN-γ production compared to α-GalCer", "setting": "[1]; [9]", "result": "selectively induced production of IFN-γ in larger amounts"}, {"measurement": "IFN-γ production level in serum compared with α-GalCer", "setting": "[1]; [10]", "result": "larger amount of IFN-γ than α-GalCer"}]}, {"molecule": "CCCCCCCCCCCCCCCCCCCCCCCCCC(=O)N[C@@H](CO[C@H]1CC(CO)[C@H](O)C(O)C1O)[C@H](O)[C@H](O)CCCCCCCCCCCCCC", "note": "(stereo partly shown) [carba-glycolipid A]", "values": [{"measurement": "Induction of IFN-γ production by NKT cells", "setting": "[2]", "result": "strongly induces IFN-γ production"}, {"measurement": "Activity on human NKT cells in vitro", "setting": "[3]", "result": "strong activity"}]}, {"molecule": "CCCCCCCCCCCCCCCCCCCCCCCCCC(=O)N[C@@H](CO[C@H]1OC(COC)[C@H](O)[C@H](O)C1O)[C@H](O)[C@H](O)CCCCCCCCCCCCCC", "note": "(stereo partly shown) [compound 2-9]", "values": [{"measurement": "IL-12(p70) production level in serum as compared with α-GalCer", "setting": "[4]", "result": "up to 4 fold"}, {"measurement": "IL-4 production level in serum", "setting": "[5]", "result": "decreased as the dose of compound 2-9 was reduced"}, {"measurement": "IFN-γ production level in serum compared with α-GalCer and carba-glycolipid A", "setting": "[1]; [7]", "result": "larger amount of IFN-γ than α-GalCer and carba-glycolipid A; also recorded: most strongly"}, {"measurement": "Selective induction of IFN-γ production compared to α-GalCer and carba-glycolipid A", "setting": "[1]; [8]", "result": "selectively induced production of IFN-γ in larger amounts"}, {"measurement": "Selective induction of IFN-γ production compared to α-GalCer", "setting": "[1]; [9]", "result": "selectively induced production of IFN-γ in larger amounts"}, {"measurement": "IFN-γ production level in serum compared with α-GalCer", "setting": "[1]; [10]", "result": "larger amount of IFN-γ than α-GalCer; also recorded: most strongly"}, {"measurement": "IFN-γ production level in serum compared with α-GalCer", "setting": "[1]; Experimental Example 3, compound 2-9 at 2 to 0.0002 μg/mouse, α-GalCer 2 μg/mouse, FIG. 5", "result": "larger amount of IFN-γ than α-GalCer even by administration at a lower concentration"}, {"measurement": "Selective induction of IFN-γ production compared to α-GalCer", "setting": "[1]; Experimental Example 3, lower doses of compound 2-9", "result": "selectively induced production of IFN-γ in larger amounts"}]}, {"molecule": "CCCCCCCCCCCCCCCCCCCCCCCCCC(=O)N[C@@H](COC1OC(CO)C(O)C(O)C1O)[C@H](O)[C@H](O)CCCCCCCCCCCCCC", "note": "(stereo partly drawn) [α-GalCer, reference compound]", "values": [{"measurement": "IFN-γ/IL-4 ratio", "setting": "[1]; Experimental Example 1", "result": 2}, {"measurement": "Immunostimulatory activity in a series of synthesis analogs", "setting": "[6]", "result": "shows the strongest activity"}]}, {"molecule": "CCCCCCCCCCCCCCCCCCCCCCCCCC(=O)N[C@@H](CO[C@H]1OC(CC)[C@H](O)[C@H](O)C1O)[C@H](O)[C@H](O)CCCCCCCCCCCCCC", "note": "(stereo partly shown) [compound 3-4]", "values": [{"measurement": "IFN-γ production level in serum compared with α-GalCer and carba-glycolipid A", "setting": "[1]; [7]", "result": "larger amount of IFN-γ than α-GalCer and carba-glycolipid A"}, {"measurement": "Selective induction of IFN-γ production compared to α-GalCer and carba-glycolipid A", "setting": "[1]; [8]", "result": "selectively induced production of IFN-γ in larger amounts"}, {"measurement": "Selective induction of IFN-γ production compared to α-GalCer", "setting": "[1]; [9]", "result": "selectively induced production of IFN-γ in larger amounts"}, {"measurement": "IFN-γ production level in serum compared with α-GalCer", "setting": "[1]; [10]", "result": "larger amount of IFN-γ than α-GalCer"}]}, {"molecule": "CCCCCCCCCCCCCCCCCCCCCCCCCC(=O)N[C@@H](CO[C@H]1OC(COCCC)[C@H](O)[C@H](O)C1O)[C@H](O)[C@H](O)CCCCCCCCCCCCCC", "note": "(stereo partly shown) [compound 3-16]", "values": [{"measurement": "Selective induction of IFN-γ production compared to α-GalCer", "setting": "[1]; [9]", "result": "selectively induced production of IFN-γ in larger amounts"}, {"measurement": "IFN-γ production level in serum compared with α-GalCer", "setting": "[1]; [10]", "result": "larger amount of IFN-γ than α-GalCer"}]}, {"molecule": "CCCCCCCCCCCCCCCCCCCCCCCCCC(=O)N[C@@H](CO[C@H]1OC(CF)[C@H](O)[C@H](O)C1O)[C@H](O)[C@H](O)CCCCCCCCCCCCCC", "note": "(stereo partly shown) [compound 3-7]", "values": [{"measurement": "IFN-γ production level in serum compared with α-GalCer and carba-glycolipid A", "setting": "[1]; [7]", "result": "larger amount of IFN-γ than α-GalCer and carba-glycolipid A"}, {"measurement": "Selective induction of IFN-γ production compared to α-GalCer and carba-glycolipid A", "setting": "[1]; [8]", "result": "selectively induced production of IFN-γ in larger amounts"}, {"measurement": "Selective induction of IFN-γ production compared to α-GalCer", "setting": "[1]; [9]", "result": "selectively induced production of IFN-γ in larger amounts"}, {"measurement": "IFN-γ production level in serum compared with α-GalCer", "setting": "[1]; [10]", "result": "larger amount of IFN-γ than α-GalCer"}]}]}
